Here are results for one compound from ChEMBL document CHEMBL1671753, “Therapeutic drug monitoring of linezolid: a retrospective monocentric analysis” (Antimicrob Agents Chemother, 2010).

What is called AUC is concentration integrated over time. The low end stands for less exposure, the high end for more exposure. One may read the Cmax as the peak of the concentration-time curve.

Data set [1] can be described thus: AUC (12 hrs) in liver transplant patient plasma at 600 mg, iv or 600 mg, po administered every 12 hrs by HPLC. It counts as ADME, organism-based. The conditions noted are these: human.
In another data set the test system is Homo sapiens. Briefly: Nonrenal clearance in healthy human at 600 mg, po. It counts as ADME, organism-based. The note with it: in vivo.
The nature of data set [2]: Cmax in patient plasma at 600 mg, iv or 600 mg, po administered every 12 hrs by HPLC. The conditions noted are these: human. It counts as ADME, organism-based.
A short description of data set [3]: Drug excretion in healthy human urine assessed as unchanged compound at 600 mg, po. The note with it: read-out: Activity. It counts as ADME, tissue-based.
Data set [4] can be described thus: AUC (24 hrs) in patient plasma at 600 mg, iv or 600 mg, po administered every 12 hrs by HPLC. It counts as ADME, organism-based. The note with it: human.

Regarding `CC(=O)NC[C@H]1CN(c2ccc(N3CCOCC3)c(F)c2)C(=O)O1` [LINEZOLID], in data set [1], the area under the curve (AUC) at 12 h turned out to be 413 µg·h/mL. Further, the “Dose non renally cleared” value in the data set with Homo sapiens came out at 65%. Also, in data set [2], the peak level (Cmax) was 14700 ng/mL. Moreover, the dose excreted in data set [3] was 30%. The AUC in data set [4] turned out to be 196 µg·h/mL.
